# How the values were obtained:
# Staphylococcus aureus = assay: Antimicrobial activity of MBP on nutrient agar, Staphylococcus aureus; assay type: cell-based; settings: read-out: Germistatic Concentration of MBP
# Procedure: (§1) Microbiological tests were conducted to determine the antimicrobial activity of methylene bispropionate (MBP). The minimum concentration of MBP, capable of inhibiting the growth of five species of bacteria, two species of mold and one species of yeast was determined. Petri plates containing nutrient agar and various concentrations of MBP were inoculated with each of the test species. The identification of these organisms and the effective concentration of MBP inhibiting growth are shown below: […]
# Fusarium sp. = assay: Concentration for 90% control of pathogen on corn seeds (Table V), Fusarium sp.; assay type: cell-based; settings: 5 days after treatment
# Procedure: (§2) A small amount of acetone was added to the bis-ester to make specific volume, plus a small portion of emulsifier making it into a slurry. This preparation was diluted with water to the desired concentration. Solution was then evenly distributed on the wall of a glass jar. High moisture feedcorn with natural infection was stored frozen after harvest until used for this test. The corn seeds were rolled in the jar until they were coated and the solution was completely absorbed on them.
# (§3) Following the treatment, the corn seeds were plated on Potato Dextrose Agar plates. For comparison, untreated corn seeds were also plated. Propionic acid was also tested for comparison.
# (§4) A variety of bis-esters was tested for the control of seed- and soil-borne pathogens during the storage of corn seeds (Zea mays) by the procedure of Example 11. For comparison, propionic acid was also tested.
# (§5) Control of each pathogen was determined by mycelial growth in millimeters in the treated seeds relative to untreated seeds. Mycelial growth of Rhizopus species and Fusarium species was evaluated 5 days after treatment. Mycelial growth in Aspergillus niger was evaluated 14 days after treatment.
# (§6) The bis-ester tested and the concentration of active ingredient in ounces per 100 lbs. of corn seeds for 90 percent control of each pathogen species are tabulated in Table V.
# Aspergillus niger [1] = assay: Antimicrobial activity of MBP on nutrient agar, Aspergillus niger; assay type: cell-based; settings: read-out: Germistatic Concentration of MBP
# Procedure: as §1
# Bacillus subtilis = assay: Antimicrobial activity of MBP on nutrient agar, Bacillus subtilis; assay type: cell-based; settings: read-out: Germistatic Concentration of MBP
# Procedure: as §1
# Pseudomonas aeruginosa = assay: Antimicrobial activity of MBP on nutrient agar, Pseudomonas aeruginosa; assay type: cell-based; settings: read-out: Germistatic Concentration of MBP
# Procedure: as §1
# Streptococcus pyogenes = assay: Antimicrobial activity of MBP on nutrient agar, Streptococcus pyogenes; assay type: cell-based; settings: read-out: Germistatic Concentration of MBP
# Procedure: as §1
# Escherichia coli = assay: Antimicrobial activity of MBP on nutrient agar, Escherichia coli; assay type: cell-based; settings: read-out: Germistatic Concentration of MBP
# Procedure: as §1
# [2] = tested on: Trichophyton interdigitale; assay: Antimicrobial activity of MBP on nutrient agar, Trichophyton interdigitale; assay type: cell-based; settings: read-out: Germistatic Concentration of MBP
# Procedure: as §1
# Candida albicans = assay: Antimicrobial activity of MBP on nutrient agar, Candida albicans; assay type: cell-based; settings: read-out: Germistatic Concentration of MBP
# Procedure: as §1
# All Species = assay: Control of seed- and soil-borne pathogens during storage of corn seeds (Table IV), all species; assay type: cell-based, Rhizopus, Penicillium, Fusarium; settings: relative to untreated check
# Procedure: A variety of bis-esters was tested for the control of seed- and soil-borne pathogens during storage of corn seeds (Zea mays) by the following procedure.
# as §2, §3
# The percentage control of all species was based on the total sum average of mycelial growth in millimeters of all species in the treated seeds relative to the untreated check. The fast growing Rhizopus was evaluated 7 days after treatment, the other fungi after 14 days.
# Rhizopus sp. = assay: Concentration for 90% control of pathogen on corn seeds (Table V), Rhizopus sp.; assay type: cell-based; settings: 5 days after treatment
# Procedure: as §2, §3, §4, §5, §6
# high moisture corn = assay: Preservation of high moisture corn in ventilated cans (time until temperature exceeds room temperature); settings: for Weeks Effective: corn 25 percent moisture, 70-72 F
# Procedure: High moisture corn (25 percent moisture) was treated with various methylene and polyoxymethylene esters of propionic or acetic acid of various dosages. The esters were applied to the corn in a mixer for one minute at 32 RPM. Three replicate two gallon ventilated cans were filled with the treated corn. The cans were then held at a temperature of 70°-72° F. Temperature readings were taken semi-weekly by means of thermocouples in the center of each can. When the temperature exceeded constant room temperature for at least an 8-hour period the treatment was considered broken.
# fungal growth = assay: Visual fungal growth rating on treated crops in ventilated cans; parameters: key: 1 = no growth, 10 = heavy uniform growth; settings: 1-10 basis
# Procedure: Methylene bispropionate was applied to a variety of crops at various dosages by spraying or in a mixer. Two ventilated cans were filled with each treated crop. The cans were then maintained at 70° F. ±5° F. Each can was periodically visually observed for fungal growth and the observations were translated into a growth rating on a 1-10 basis; 1 indicating no growth and 10 indicating heavy uniform growth. For comparison, two samples of each untreated crop were also tested. The crops employed, the percent weight methylene bispropionate (MBP) based on weight crop, and the fungal rating 2, 7-8 and 28-29 days after treatment are tabulated in Table III.
# [3] = Acute oral toxicity in white rats; settings: rat, in vivo
# Excerpt: Methylene bispropionate was subjected to acute oral toxicity studies using white rats.
# Aspergillus niger [4] = assay: Concentration for 90% control of pathogen on corn seeds (Table V), Aspergillus niger; assay type: cell-based; settings: 14 days after treatment
# Procedure: as §2, §3, §4, §5, §6
compound,measurement,setting,value
CCC(=O)OCOC(=O)CC [Methylene Bispropionate],MIC,Staphylococcus aureus,1000 µg/mL
same,"Conc. for 90% Control, Fusarium sp.",Fusarium sp.,0.5 oz./100 lbs.
same,MIC,Aspergillus niger [1],800 µg/mL
same,MIC,Bacillus subtilis,8000 µg/mL
same,MIC,Pseudomonas aeruginosa,7000 µg/mL
same,MIC,Streptococcus pyogenes,700 µg/mL
same,MIC,Escherichia coli,6000 µg/mL
same,MIC,[2],800 µg/mL
same,MIC,Candida albicans,1000 µg/mL
same,% Control All Species,All Species; 1.0 Oz./100 Lbs.,97%
same,% Control All Species,All Species; 2.5 Oz./100 Lbs.,100%
same,% Control All Species,All Species; 6.4 Oz./100 Lbs.,100%
same,% Control All Species,All Species; 16 Oz./100 Lbs.,100%
same,"Conc. for 90% Control, Rhizopus sp.",Rhizopus sp.,0.85 oz./100 lbs.
same,Weeks Effective,high moisture corn; 3 Oz/Bu,> 12 Weeks
same,Weeks Effective,high moisture corn; 6 Oz/Bu,> 12 Weeks
same,effectiveness in preservation of high moisture corn (in words),high moisture corn; from Table II,remarkably superior to propionic acid in the preservation of high moisture corn
same,Fungal Rating,"fungal growth; Hay (4"" seedlings), […] Wt MBP, 7-8 days",0
same,Fungal Rating,"fungal growth; Hay (4"" seedlings), […] Wt MBP, 28-29 days",4
same,Fungal Rating,"fungal growth; Hay (4"" seedlings), […] Wt MBP, 2 days",0
same,Fungal Rating,"fungal growth; Sorghum (33% H2 O), 0.51 % Wt MBP, 7-8 days",0
same,Fungal Rating,"fungal growth; Sorghum (33% H2 O), 0.51 % Wt MBP, 28-29 days",0
same,Fungal Rating,"fungal growth; Sorghum (33% H2 O), 0.51 % Wt MBP, 2 days",0
same,Fungal Rating,"fungal growth; Soybeans (26% H2 O), 0.51 % Wt MBP, 7-8 days",0
same,Fungal Rating,"fungal growth; Soybeans (26% H2 O), 0.51 % Wt MBP, 28-29 days",0
same,Fungal Rating,"fungal growth; Soybeans (26% H2 O), 0.51 % Wt MBP, 2 days",0
same,Fungal Rating,"fungal growth; Wheat (26% H2 O), 0.6 % Wt MBP, 7-8 days",0
same,Fungal Rating,"fungal growth; Wheat (26% H2 O), 0.6 % Wt MBP, 28-29 days",0
same,Fungal Rating,"fungal growth; Wheat (26% H2 O), 0.6 % Wt MBP, 2 days",0
same,Fungal Rating,"fungal growth; Wood Chips (freshly cut), 1.4 % Wt MBP, 7-8 days",0
same,Fungal Rating,"fungal growth; Wood Chips (freshly cut), 1.4 % Wt MBP, 28-29 days",0
same,Fungal Rating,"fungal growth; Wood Chips (freshly cut), 1.4 % Wt MBP, 2 days",0
same,LD50,[3],2800 mg/kg
same,inhibition of growth at 0.16 oz/100 lb,"Aspergillus niger [4]; Aspergillus niger, 336 h, 0.16 oz./100 lbs.",99%
same,"Conc. for 90% Control, Aspergillus niger",Aspergillus niger [4]; corn seeds,0.16 oz./100 lbs.
